Data taken from the supplement of paper PMC11451515.

Experiments:
Settings in all cases: 48 h
SEM cells [1] = assay: AUC of viability dose-response curve (% viability x log10 dose units); higher = less sensitive
Outline: (§1)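 Leukemia cells adapted to each medium (500 or 1000 cells/well, 1536-well plates) were exposed to library compounds in DMSO for 48 h at 37°C at 11 threefold doses, 47 μM to 0.79 nM. Luminescence by CellTiter-Glo One was normalised per plate to DMSO and cell-free wells, then fitted with a four-parameter log-logistic curve on log10 dose. Curves above full viability were scaled and quality-control failures removed before area under the curve was integrated by trapezoidal rule.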

NOMO1 [2] = assay: as above
Outline: as §1

P12-Ichikawa [3] = assay: as above
Outline: as §1

SEM cells [4] = assay: cell viability relative to DMSO control; higher = less cytotoxic
Outline: (§2)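 In 1536-well plates, 5 μl of leukemia cells were seeded per well: 500 cells/well for NOMO1 or SEM and 1000 cells/well for P12-Ichikawa. Each line had first been adapted for at least four passages in each medium. Library compounds in DMSO were pin-dosed at 11 threefold concentrations between 47 μM and 0.79 nM, and CellTiter-Glo One luminescence was read after 48 h at 37°C. Viability is a per-plate percentage relative to DMSO wells, with cell-free wells as background.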

NOMO1 [5] = assay: as above
Outline: as §2

P12-Ichikawa [6] = assay: as above
Outline: as §2

CC(C)n1c(/C=C/[C@H](O)C[C@H](O)CC(=O)O)c(-c2ccc(F)cc2)c2ccccc21
AUC of viability dose-response curve
Settings | NOMO1 [2] | P12-Ichikawa [3] | SEM cells [1]
HPLM + 10% dialyzed FBS | 428 | 381 | 430
RPMI 5 mM glucose + 10% FBS | 457 | 371 | 426
RPMI 5 mM glucose + 10% dialyzed FBS | 448 | 355 | 441

cell viability [%], SEM cells [4]
Settings | HPLM + 10% dialyzed FBS | RPMI 5 mM glucose + 10% FBS | RPMI 5 mM glucose + 10% dialyzed FBS
0.000781 µM | 102 | 103 | 92.9
0.00234 µM | 99.3 | 105 | 90.7
0.00702 µM | 123 | 126 | 129
0.0211 µM | 107 | 107 | 112
0.0632 µM | 125 | 116 | 126
0.19 µM | 129 | 113 | 129
0.569 µM | 105 | 106 | 129
1.71 µM | 99.2 | 103 | 116
5.12 µM | 85 | 95.5 | 101
15.4 µM | 83.4 | 60.7 | 83.8
46.1 µM | 37.9 | 19 | 26.8

O=C(Nc1cccc(Cl)c1)Nc1ncc(CCNc2ncnc3ccsc23)s1
AUC of viability dose-response curve
Settings | NOMO1 [2] | P12-Ichikawa [3] | SEM cells [1]
HPLM + 10% dialyzed FBS | 362 | 290 | 301
RPMI 5 mM glucose + 10% FBS | 374 | 306 | 272
RPMI 5 mM glucose + 10% dialyzed FBS | 385 | 301 | 274

O=C1c2c(O)cc(O)cc2O[C@H](c2ccc(O)c(O)c2)[C@H]1O
AUC of viability dose-response curve
Settings | NOMO1 [2] | P12-Ichikawa [3] | SEM cells [1]
HPLM + 10% dialyzed FBS | 469 | 459 | 454
RPMI 5 mM glucose + 10% FBS | 475 | 453 | 470
RPMI 5 mM glucose + 10% dialyzed FBS | 453 | 465 | 450

cell viability [%], SEM cells [4]
Settings | HPLM + 10% dialyzed FBS | RPMI 5 mM glucose + 10% FBS
0.000781 µM | 113 | 121
0.00234 µM | 120 | 123
0.00702 µM | 132 | 136
0.0211 µM | 113 | 150
0.0632 µM | 117 | 126
0.19 µM | 125 | 126
0.569 µM | 127 | 122
1.71 µM | 143 | 122
5.12 µM | 126 | 127
15.4 µM | 127 | 125
46.1 µM | 131 | 128

Cc1ccccc1N1C(=O)c2cc([S+](N)(=O)[O-])c(Cl)cc2NC1C (stereo unspecified)
AUC of viability dose-response curve
Settings | HPLM + 10% dialyzed FBS | RPMI 5 mM glucose + 10% FBS | RPMI 5 mM glucose + 10% dialyzed FBS
P12-Ichikawa [3] | 449 | 460 | 450
SEM cells [1] | 448 | 413 | 462

cell viability [%]
Settings | NOMO1 [5] | P12-Ichikawa [6] | SEM cells [4]
HPLM + 10% dialyzed FBS, 0.000781 µM | 123 | 134 | 117
HPLM + 10% dialyzed FBS, 0.00234 µM | 109 | 121 | 108
HPLM + 10% dialyzed FBS, 0.00702 µM | 121 | 119 | 105
HPLM + 10% dialyzed FBS, 0.0211 µM | 117 | 132 | 107
HPLM + 10% dialyzed FBS, 0.0632 µM | 106 | 125 | 122
HPLM + 10% dialyzed FBS, 0.19 µM | 120 | 125 | 117
HPLM + 10% dialyzed FBS, 0.569 µM | 110 | 109 | 28.7
HPLM + 10% dialyzed FBS, 1.71 µM | 113 | 120 | 102
HPLM + 10% dialyzed FBS, 5.12 µM | 37.9 | 119 | 112
HPLM + 10% dialyzed FBS, 15.4 µM | 82.7 | 103 | 107
HPLM + 10% dialyzed FBS, 46.1 µM | 123 | 110 | 103
RPMI 5 mM glucose + 10% FBS, 0.000781 µM | 131 | 122 | 142
RPMI 5 mM glucose + 10% FBS, 0.00234 µM | 113 | 121 | 120
RPMI 5 mM glucose + 10% FBS, 0.00702 µM | 124 | 131 | 117
RPMI 5 mM glucose + 10% FBS, 0.0211 µM | 116 | 129 | 109
RPMI 5 mM glucose + 10% FBS, 0.0632 µM | 114 | 137 | 118
RPMI 5 mM glucose + 10% FBS, 0.19 µM | 118 | 134 | 126
RPMI 5 mM glucose + 10% FBS, 0.569 µM | 120 | 130 | 22.5
RPMI 5 mM glucose + 10% FBS, 1.71 µM | 122 | 124 | 128
RPMI 5 mM glucose + 10% FBS, 5.12 µM | 28.1 | 109 | 119
RPMI 5 mM glucose + 10% FBS, 15.4 µM | 94.5 | 98.3 | 112
RPMI 5 mM glucose + 10% FBS, 46.1 µM | 107 | 129 | 84.4
RPMI 5 mM glucose + 10% dialyzed FBS, 0.000781 µM | 114 | – | 125
RPMI 5 mM glucose + 10% dialyzed FBS, 0.00234 µM | 128 | – | 103
RPMI 5 mM glucose + 10% dialyzed FBS, 0.00702 µM | 124 | – | 89.6
RPMI 5 mM glucose + 10% dialyzed FBS, 0.0211 µM | 130 | – | 103
RPMI 5 mM glucose + 10% dialyzed FBS, 0.0632 µM | 128 | – | 100
RPMI 5 mM glucose + 10% dialyzed FBS, 0.19 µM | 119 | – | 97.5
RPMI 5 mM glucose + 10% dialyzed FBS, 0.569 µM | 116 | – | 26.8
RPMI 5 mM glucose + 10% dialyzed FBS, 1.71 µM | 119 | – | 126
RPMI 5 mM glucose + 10% dialyzed FBS, 5.12 µM | 35.6 | – | 112
RPMI 5 mM glucose + 10% dialyzed FBS, 15.4 µM | 77.8 | – | 108
RPMI 5 mM glucose + 10% dialyzed FBS, 46.1 µM | 109 | – | 97.2

CN(CC#C)C/C1=C/C2=CC=CC=C2OC3=CC=CC=C13
AUC of viability dose-response curve
Settings | HPLM + 10% dialyzed FBS | RPMI 5 mM glucose + 10% FBS | RPMI 5 mM glucose + 10% dialyzed FBS
NOMO1 [2] | 401 | 400 | 407
P12-Ichikawa [3] | 417 | 407 | 400

cell viability [%]
Settings | NOMO1 [5] | P12-Ichikawa [6] | SEM cells [4]
HPLM + 10% dialyzed FBS, 0.000781 µM | 82.4 | 91 | 90.9
HPLM + 10% dialyzed FBS, 0.00234 µM | 98.5 | 85 | 90.7
HPLM + 10% dialyzed FBS, 0.00702 µM | 91.5 | 92 | 79.7
HPLM + 10% dialyzed FBS, 0.0211 µM | 89.2 | 87.6 | 80.1
HPLM + 10% dialyzed FBS, 0.0632 µM | 98.9 | 90.8 | 76.8
HPLM + 10% dialyzed FBS, 0.19 µM | 91.2 | 89.6 | 40.6
HPLM + 10% dialyzed FBS, 0.569 µM | 85.2 | 90.1 | 32.1
HPLM + 10% dialyzed FBS, 1.71 µM | 70.4 | 80.8 | 91.6
HPLM + 10% dialyzed FBS, 5.12 µM | 82.3 | 84.1 | 30.1
HPLM + 10% dialyzed FBS, 15.4 µM | 65.1 | 83 | 49.2
HPLM + 10% dialyzed FBS, 46.1 µM | 64 | 87.1 | 42
RPMI 5 mM glucose + 10% FBS, 0.000781 µM | 81.3 | 91.8 | 100
RPMI 5 mM glucose + 10% FBS, 0.00234 µM | 85.1 | 86.1 | 109
RPMI 5 mM glucose + 10% FBS, 0.00702 µM | 82.2 | 88.2 | 113
RPMI 5 mM glucose + 10% FBS, 0.0211 µM | 94.4 | 91.2 | 105
RPMI 5 mM glucose + 10% FBS, 0.0632 µM | 86.3 | 92.6 | 83.3
RPMI 5 mM glucose + 10% FBS, 0.19 µM | 77.5 | 84.7 | 49.9
RPMI 5 mM glucose + 10% FBS, 0.569 µM | 92.6 | 76.5 | 36.8
RPMI 5 mM glucose + 10% FBS, 1.71 µM | 81.3 | 83.3 | 117
RPMI 5 mM glucose + 10% FBS, 5.12 µM | 80 | 78.4 | 41.4
RPMI 5 mM glucose + 10% FBS, 15.4 µM | 85.1 | 83.1 | 61.3
RPMI 5 mM glucose + 10% FBS, 46.1 µM | 75.5 | 82 | 50.3
RPMI 5 mM glucose + 10% dialyzed FBS, 0.000781 µM | 89.1 | 83.3 | 80.4
RPMI 5 mM glucose + 10% dialyzed FBS, 0.00234 µM | 81.7 | 81 | 85.3
RPMI 5 mM glucose + 10% dialyzed FBS, 0.00702 µM | 83.8 | 89.8 | 81.2
RPMI 5 mM glucose + 10% dialyzed FBS, 0.0211 µM | 87 | 87.8 | 69.2
RPMI 5 mM glucose + 10% dialyzed FBS, 0.0632 µM | 91.5 | 88 | 60.6
RPMI 5 mM glucose + 10% dialyzed FBS, 0.19 µM | 78.4 | 87.9 | 32.8
RPMI 5 mM glucose + 10% dialyzed FBS, 0.569 µM | 81.1 | 88.4 | 29.1
RPMI 5 mM glucose + 10% dialyzed FBS, 1.71 µM | 84.4 | 76.5 | 103
RPMI 5 mM glucose + 10% dialyzed FBS, 5.12 µM | 93.6 | 77.2 | 29.2
RPMI 5 mM glucose + 10% dialyzed FBS, 15.4 µM | 87.1 | 82 | 47.3
RPMI 5 mM glucose + 10% dialyzed FBS, 46.1 µM | 80.6 | 78.4 | 37.7
